{"source": "patent US12109179B2", "about": "“Pharmaceutical compositions and combinations comprising inhibitors of the androgen receptor and uses thereof” (ESSA Pharma Inc., priority 2019, dated 2024)", "key": {"[1]": {"tested_on": "Androgen-induced PSA-luciferase (LNCaP cells)", "assay": "Androgen-induced PSA (6.1 kb)-luciferase reporter assay in LNCaP cells", "type": "cell-based", "conditions": "Homo sapiens, R1881 (1 nM) 24 h", "protocol": "To determine the IC50, treatments were normalized to the maximum activity with androgen-induction (in the absence of test compounds, vehicle only) (Table 1).\nLuciferase Assay: Lysates were thawed on ice then collected into V-bottom 96-well tissue culture plates. Lysates were centrifuged at 4° C. for 5 minutes at 4000 rpm. To measure luminescence of LNCaP cell lysates the Firefly Luciferase Assay System (Promega) was employed, according to manufacturer's protocol.\nComparisons between treatment and control groups were compared using Two-Way ANOVA with post-hoc Dunnett's and Tukey's tests. Differences were considered statistically significant at P values less than 0.05. Densitometric quantification of relative AR levels was determined by Image."}, "LN95-D3 cells": {"tested_on": "LN95-D3 cells", "assay": "Cell cycle analysis of LN95-D3 cells", "type": "cell-based", "conditions": "1.5% charcoal-stripped serum", "protocol": "Flow cytometry: Fixed cells were probed with anti-BrdU-FITC antibody (BD Biosciences) and stained with 7AAD (Sigma). Data was acquired on a FACSCalibur flow cytometer (BD Biosciences) with CellQUEST Pro and later analyzed using FlowJo V10 software.\nAfter incubating with the compounds, cells were labelled with BrdU for 2 h and then processed for flow cytometry."}, "PSA protein": {"tested_on": "PSA protein", "assay": "Western blot of PSA protein in LNCaP lysates", "type": "cell-based", "conditions": "ATRA (10 μM), R1881 (1 nM) 24 h"}, "[2]": {"tested_on": "reporter constructs regulated by CMV promoter or AP-1 binding sites", "assay": "Control reporter constructs (CMV promoter, AP-1 binding sites)", "type": "cell-based", "excerpt": "2010, and Myung et al., J Clin Invest. 2013."}, "[3]": {"tested_on": "AR transcriptional activity (PSA (6.1 kb)-luciferase, LNCaP cells)", "assay": "PSA (6.1 kb)-luciferase assay with Pin1 inhibitors and AR NTD inhibitors (Examples 36-37)", "type": "cell-based", "conditions": "for IC50: Homo sapiens, 24 h", "protocol": "Statistical analyses: Statistical significance was determined with GraphPad Prism 8 software using two-way ANOVA with Dunnett's multiple comparisons test unless indicated otherwise; *P<0.05, **P<0.01, ***P<0.001; ns, not significant.\nData shown in Figures are the means±SE from 4 independent experiments."}, "[4]": {"tested_on": "mCRPC patients with bone metastases", "conditions": "cited from earlier work"}, "LNCaP95 cells": {"tested_on": "LNCaP95 cells", "assay": "γH2AX DNA damage in LNCaP95 cells with or without irradiation", "type": "cell-based", "conditions": "ENZ 5 μM, with or without irradiation (4Gy), 48 h", "protocol": "Further, cells were labelled for γH2AX and 7AAD and analyzed by flow cytometry (FIG. 12B). The percentage of cells containing above 10 γH2AX foci (mean±SD from three independent experiments) are represented in FIG. 12C.\nFlow Cytometry: Cell cycle analysis was conducted by flow cytometry using BrdU-FITC and 7AAD. DNA damage was analyzed using γH2AX antibody (CST) and 7AAD. Cells were analyzed on FACScalibur flow cytometer.\nImmunofluorescence staining: γH2AX antibody (Millipore mouse), Alexa488 anti-mouse antibody were used for staining. Cells were analyzed on Axio observer (×20 magnification) equipped with epitome 2.\nStatistical analysis: Graphs represent the means±SEM from three independent experiments performed with three technical replicates. Statistical significance was determined using GraphPad Prism software with a one-way ANOVA; *P<0.05, **P<0.01, ***P<0.001, ****P<0.0001."}, "LN95 cells": {"tested_on": "LN95 cells", "assay": "Senescence-associated β-gal staining of LN95 cells", "type": "cell-based", "conditions": "1.5% charcoal-stripped serum, 3 days", "protocol": "β-galactosidase staining: Cells grown in chamber slides and treated with compounds were fixed at room temperature with 2% formaldehyde/0.2% glutaraldehyde, and then incubated at 37° C. with fresh β-gal staining solution (Cell Signaling) titrated to pH 6.0. Staining was optimal after incubating the slides overnight for 16-18 hours.\nResults shown are representative of 3 independent experiments."}, "[5]": {"tested_on": "AR-positive breast cancer cell lines", "assay": "Cell proliferation (BrdU) and viability (alamarBlue) of breast cancer cell lines", "type": "cell-based", "conditions": "BrdU 4 days (enzalutamide 10 μM, EPI-002 35 μM); alamarBlue 2 or 3 days"}, "C4-2B-MDVR": {"tested_on": "C4-2B-MDVR", "assay": "Colony formation, C4-2B-MDVR", "type": "cell-based, human"}}}
{"smiles": "CC(C)(c1ccc(OCC(=O)CNS(C)(=O)=O)cc1)c1cc(Cl)c(OCCCCl)c(Cl)c1", "note": "[AA31, N-(3-(4-(2-(3,5-dichloro-4-(3-chloropropoxy)phenyl)propan-2-yl)phenoxy)-2-oxopropyl)methanesulfonamide]", "values": [{"measurement": "IC50", "setting": "[1]", "result": 51, "unit": "nM"}]}
{"smiles": "CCS(=O)(=O)C[C@@H](O)COc1ccc(C(C)(C)c2cc(Cl)c(OC[C@H](O)CCl)c(Cl)c2)cc1", "note": "[Compound 14a]", "values": [{"measurement": "IC50", "setting": "[1]", "result": 950, "unit": "nM"}]}
{"smiles": "COCC(=O)COc1ccc(C(C)(C)c2cc(Cl)c(OCC(O)CCl)c(Cl)c2)cc1", "note": "(stereo not drawn) [AA56]", "values": [{"measurement": "IC50", "setting": "[1]", "result": 344, "unit": "nM"}]}
{"smiles": "CC(C)(c1ccc(OCC(=O)CNS(C)(=O)=O)cc1)c1cc(Cl)c(OCCCl)c(Cl)c1", "note": "[AA33]", "values": [{"measurement": "IC50", "setting": "[1]", "result": 38, "unit": "nM"}]}
{"smiles": "CC1=C(/C=C/C(C)=C/C=C/C(C)=C/C(=O)O)C(C)(C)CCC1", "note": "[ATRA, all-trans retinoic acid]", "values": [{"measurement": "cell cycle effect", "setting": "LN95-D3 cells", "result": "arrested cells in G1 and decreased the S phase population in a dose-dependent manner"}, {"measurement": "androgen-induced expression of PSA protein", "setting": "PSA protein", "result": "decreased"}, {"measurement": "inhibitory effects on CMV promoter or AP-1 reporter constructs", "setting": "[2]", "result": "No inhibitory effects"}]}
{"smiles": "CC(C)(c1ccc(OC[C@H](O)CNS(C)(=O)=O)cc1)c1cc(Cl)c(OC[C@H](O)CCl)c(Cl)c1", "note": "[Compound 13a]", "values": [{"measurement": "IC50", "setting": "[3]", "result": "740 ± 1200", "unit": "nM"}, {"measurement": "IC50", "setting": "[1]", "result": 1050, "unit": "nM"}]}
{"smiles": "CC(C)(c1ccc(OC[C@H](O)CN)cc1)c1cc(Cl)c(OC[C@H](O)CCl)c(Cl)c1", "note": "[Compound 12a, (R)-1-amino-3-(4-(2-(3,5-dichloro-4-((S)-3-chloro-2-hydroxypropoxy)phenyl)propan-2-yl)phenoxy)propan-2-ol]", "values": [{"measurement": "IC50", "setting": "[1]", "result": 2260, "unit": "nM"}]}
{"smiles": "CC1=C(/C=C/C(C)=C/C=C/C(C)=C\\C(=O)O)C(C)(C)CCC1", "note": "[Compound 13CisRA]", "values": [{"measurement": "inhibitory effects on CMV promoter or AP-1 reporter constructs", "setting": "[2]", "result": "No inhibitory effects"}]}
{"smiles": "[Cl][223Ra][Cl]", "note": "[radium 223 dichloride]", "values": [{"measurement": "increase overall survival (OS)", "setting": "[4]", "result": "approximately 3 months"}]}
{"smiles": "CNC(=O)c1ccc(N2C(=S)N(c3ccc(C#N)c(C(F)(F)F)c3)C(=O)C2(C)C)cc1F", "note": "[Enzalutamide, enzalutamide]", "values": [{"measurement": "combination with ATRA: G1 arrest and decrease of S phase population", "setting": "LN95-D3 cells", "result": "not"}, {"measurement": "percentage of cells containing above 10 γH2AX foci", "setting": "LNCaP95 cells", "result": "no effect"}]}
{"smiles": "CC(O)(CCl)COc1c(Cl)cc(C(C)(C)c2ccc(OCC(=O)CNS(C)(=O)=O)cc2)cc1Cl", "note": "(stereo not drawn) [AA52]", "values": [{"measurement": "IC50", "setting": "[1]", "result": 74, "unit": "nM"}]}
{"smiles": "CC(C)(c1ccc(OC[C@H](O)Cn2ccnc2)cc1)c1cc(Cl)c(OC[C@H](O)CCl)c(Cl)c1", "note": "[Compound 9a]", "values": [{"measurement": "IC50", "setting": "[1]", "result": 3120, "unit": "nM"}]}
{"smiles": "COC[C@@H](O)COc1ccc(C(C)(C)c2cc(Cl)c(OC[C@H](O)CCl)c(Cl)c2)cc1", "note": "[Compound 5a]", "values": [{"measurement": "IC50", "setting": "[1]", "result": 1030, "unit": "nM"}]}
{"smiles": "CC(C)(c1ccc(OC[C@H](O)CO)cc1)c1cc(Cl)c(OC[C@H](O)CCl)c(Cl)c1", "note": "[Compound 1a]", "values": [{"measurement": "IC50", "setting": "[1]", "result": 1410, "unit": "nM"}]}
{"smiles": "CC(=O)C(=O)Nc1ccc(C(C)(C)c2cc(Cl)c(OCCCCl)c(Cl)c2)cc1", "note": "[AA85]", "values": [{"measurement": "IC50", "setting": "[1]", "result": 368, "unit": "nM"}]}
{"smiles": "CC(C)(c1ccc(OC[C@H](O)CO)cc1)c1ccc(OC[C@H](O)CCl)cc1", "note": "[EPI-002]", "values": [{"measurement": "combination with ATRA: G1 arrest and decrease of S phase population", "setting": "LN95-D3 cells", "result": "synergistic"}, {"measurement": "percentage of β-gal-positive cells, combination with ATRA", "setting": "LN95 cells", "result": "synergy"}, {"measurement": "IC50", "setting": "[3]", "result": "7900 ± 1200", "unit": "nM"}, {"measurement": "decrease in IC50 values in the presence of ATRA", "setting": "[3]; PSA (6.1 kb)-luciferase", "result": 2, "unit": "fold"}, {"measurement": "effect of combination with ATRA on inhibiting AR transcriptional activity", "setting": "[3]; PSA (6.1 kb)-luciferase, R1881 (1 nM)", "result": "synergistic effect"}, {"measurement": "cell proliferation and viability", "setting": "[5]", "result": "significantly inhibited"}, {"measurement": "colony formation, combination with Enzalutamide", "setting": "C4-2B-MDVR", "result": "reduced colony formation"}]}
{"smiles": "CC(C)(c1ccc(OC[C@H](O)CN2CCOCC2)cc1)c1cc(Cl)c(OC[C@H](O)CCl)c(Cl)c1", "note": "[Compound 11a]", "values": [{"measurement": "IC50", "setting": "[1]", "result": 1050, "unit": "nM"}]}
